Values of other authors as cited in patent US5910307A, “Process of extracting and purifying biologically effective ingredients from combined medicinal plants and their extract composition” (priority 1996, dated 1999).

Key:
[1] = tested on: biosynthesis of prostacyclin; conditions: literature
[2] = tested on: chronic rheumatoid arthritis induced by Mycobacterium butyricum; conditions: literature

Structure (SMILES) | biosynthesis of prostacyclin generated in the metabolism of arachidonic acid [1] | anti-inflammatory and analgesic effects [2] | effect on chronic rheumatoid arthritis induced by Mycobacterium butyricum [2]
O=C(/C=C/c1ccc(O)c(O)c1)O[C@H](Cc1ccc(O)c(O)c1)C(=O)O [rosmarinic acid] | inhibit |  | 
CC1(C)CC[C@]2(C(=O)O)CC[C@]3(C)C(=CC[C@@H]4[C@@]5(C)CC[C@H](O)C(C)(C)[C@@H]5CC[C@]43C)[C@@H]2C1 [oleanolic acid] |  | remarkable anti-inflammatory and analgesic effects | effective
